Entries after “also recorded” stand apart in the source; their conditions may differ. Where no end group is shown, it is not given here.

This note sets out measurements from patent publication US7169567B1, “Screening assay utilizing the PTH receptor” (The General Hospital Corporation, priority 1998, dated 2007).

Test [1] has as its target T1, truncated rat PTH-1 receptor (rΔNt) (Rattus norvegicus, UniProt P25961, E586G).
T1 construct: contains an open reading frame encoding a protein of about 435 amino acid residues; expressed in transfected cells; host or cells: COS-7, transient (DEAE-dextran), pCDNA-1 based plasmid
T1 sequence (P25961 with tags, fused parts or gaps E586G): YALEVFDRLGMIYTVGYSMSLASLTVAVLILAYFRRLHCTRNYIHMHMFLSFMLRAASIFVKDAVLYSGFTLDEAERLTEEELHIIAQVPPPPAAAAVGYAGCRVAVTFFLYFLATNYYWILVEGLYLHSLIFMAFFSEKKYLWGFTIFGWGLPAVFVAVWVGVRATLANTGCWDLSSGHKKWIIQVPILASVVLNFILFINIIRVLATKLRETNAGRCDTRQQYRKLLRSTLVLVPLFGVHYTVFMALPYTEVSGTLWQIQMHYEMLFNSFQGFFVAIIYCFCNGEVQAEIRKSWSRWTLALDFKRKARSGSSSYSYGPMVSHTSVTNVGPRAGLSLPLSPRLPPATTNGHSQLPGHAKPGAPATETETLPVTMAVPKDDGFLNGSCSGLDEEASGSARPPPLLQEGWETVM
The test can be described thus: cAMP response in COS-7 cells transiently transfected with truncated rat PTH-1 receptor (rΔNt). The test is classed as cell-based. The settings on record: for cAMP response of cells expressing rΔNt (in words): secretin(1–27) 1 mM. The text has this: (§1) FIG. 4. PTH Responses of Intact and Truncated PTH-1 Receptors in COS-7 Cells. Shown at the top are schematics of the intact (A) and truncated (B) rat PTH-1 receptors used for transient transfection of COS-7 cells, and subsequent cAMP response assays. The conserved extracellular cysteine residues are depicted as open circles and numbered according to sequence position, and the nine amino acids of the epitope tag (HA) in rWT-HA are shaded. The tics at residue 26 and 181 indicate the endpoints of the deletion in rΔNt. Based on the predicted signal peptide cleavage site at Ala-22, residues 23–25 in rΔNt are joined to residue 182. The cAMP responses of COS-7 cells expressing the intact receptor (C) and rΔNt (D) to rPTH(1–34) (J) or rPTH(1–14) (C) are also shown. The graphs show combined data (mean±s.e.m.) from five separate experiments, each performed in duplicate. […]
(§2) FIG. 6. Specificity of the Truncated Ligand and PTH Receptor. COS-7 cells transiently transfected with either rWT-HA (A), rΔNt (B), or the intact rat secretin receptor (C), were treated with the indicated peptides for 60 min at 22° C., and the resulting intracellular cAMP levels were quantified by RIA. Concentration of peptides present during the incubations were: rPTH(1–34), 0.1 mM; rPTH(1–14) 100 mM; secretin(1–27). […] Shown are data (mean±s.e.m.) from one experiment performed in duplicate, and this was repeated twice more with equivalent results.
(§3) For studies with the intact and truncated rat PTH-1 receptors, transient transfections of COS-7 cells were performed using DEAE-dextran as described previously (Bergwitz, C., et al., J. Biol. Chem. 272:28861–28868)). The construction and initial characterization of the pCDNA-1 based plasmids encodin either the intact or truncated rat PTH-1 receptor has been described previously (Lee, C., et al., Endocrinology 135(4):1488–1495)). […] The truncated rat PTH-1 receptor (rΔNt) is deleted for exons E1 through exon G (residues 26 to 181). Assuming that signal peptidase cleavage occurs between Ala-22 and Tyr-23 (Nielsen, H., et al., Protein Engineering 10:1–6 (1997)), rΔNt is predicted to have for its N-terminus residues Dautzenberg, F., et al., Proc. Natl. Acad. Sci. 95:4941–4946 (1998); Holtmann, M., et al., J. Biol. Chem. 270:14394–14398 (1995); DeAlmeida, V. and Mayo, K., Mol. Endo. 12:750–765 (1998)) joined to Glu-182 (FIG. 3B). COS-7 cells were transfected in 24-well plates when the cells were 85 to 95% of confluency, using 200 ng of plasmid DNA that was purified by cesium chloride/ethidium bromide gradient centrifugation for each well. Assays were conducted 72 to 96 hours after transfection. Under these conditions about ˜20% of the COS-7 cells become transfected and express about 5×10^6 surface PTH receptors per cell (Bergwitz, C., et al., J. Biol. Chem. 272:28861–28868)).
(§4) Intracellular cyclic AMP: Transfected COS-7 or HKRK-B7 cells were rinsed with 500 ml of binding buffer, (50 mM Tris-HCl, pH 7.7, 100 mM NaCl, 5 mM KCl, 2 mM CaC12, 5% heat-inactivated horse serum, 0.5% heat-inactivated fetal bovine serum) and 200 ml of IBMX buffer (DMEM containing 2 mM IBMX, 1 mg/ml bovine serum albumin, 35 mM Hepes-NaOH, pH 7.4) and […] of binding buffer or binding buffer containing various amounts of peptide were added. The plates were incubated for 60 minutes at room temperature. The buffer was then withdrawn and the cells were frozen on dry ice, treated with 0.5 ml of 50 mM HCl, and refrozen. After the thawing, the lysate was diluted 30-fold in dH20 and an aliquot was analyzed for cAMP content by determined radioimmunoassay using unlabeled cAMP as a standard.
(§5) Experiments utilized COS-7 cells transfected with either the intact rat PTH-1 receptor (rWT-HA, FIG. 4A) or a truncated rat PTH-1 receptor with most of the amino-terminal extracellular domain deleted (rΔNt, FIG. 4B).

Test [2] has as its system truncated rat PTH-1 receptor (rΔNt). The test is described as above. The test is classed as cell-based. The following applies: COS-7 cells, cAMP.
Text: as §1, §2, §3, §4, §5

In test [3] the test system is PTH-1 receptor (intact or truncated receptors used in this study). Put plainly: Competition and direct binding assays (radioiodinated rPTH(1–34) tracer or radiolabeled PTH(1–14) analog). The settings on record: unlabeled peptide; radioiodinated rPTH(1–34) as tracer ligand; data not shown. The text has this: This reduced potency is not surprising, given that the PTH(1–14) peptide lacks important receptor-binding residues located in the PTH(15–34) region in the PTH(15–34) domain (Nussbaum, S. R., et al., J. Biol. Chem. 255:10183–10187 (1980); Gardella, T. J., et al., Endrocrinology 132(5):2024–2030 (1993); Caulfield, M. P., et al., Endocrinology 127:83–87 (1990); and Abou-Samra, A.-B., et al., Endocrinology 125:2215–2217 (1989)).

On to `CCCC[C@H](NC(=O)[C@H](CCCNC(=N)N)NC(=O)[C@H](CCC(=O)O)NC(=O)[C@@H](NC(=O)[C@H](CO)NC(=O)[C@H](C)NC(=O)[C@H](CC(C)C)NC(=O)[C@H](Cc1c[nH]cn1)NC(=O)[C@H](CCCCN)NC(=O)CNC(=O)[C@H](CC(C)C)NC(=O)[C@H](CC(N)=O)NC(=O)[C@H](Cc1c[nH]cn1)NC(=O)[C@H](CCCC)NC(=O)[C@H](CC(C)C)NC(=O)[C@H](CCC(N)=O)NC(=O)[C@@H](NC(=O)[C@H](CCC(=O)O)NC(=O)[C@H](CO)NC(=O)[C@@H](NC(=O)[C@H](C)N)C(C)C)[C@@H](C)CC)C(C)C)C(=O)N[C@@H](CCC(N)=O)C(=O)N[C@@H](Cc1c[nH]c2ccccc12)C(=O)N[C@@H](CC(C)C)C(=O)N[C@@H](CCCNC(=N)N)C(=O)N[C@@H](CCCCN)C(=O)N[C@@H](CCCCN)C(=O)N[C@@H](CC(C)C)C(=O)N[C@@H](CCC(N)=O)C(=O)N[C@@H](CC(=O)O)C(=O)N[C@H](C(=O)N[C@@H](Cc1c[nH]cn1)C(=O)N[C@@H](CC(N)=O)C(=O)N[C@@H](Cc1ccc(O)cc1)C(N)=O)C(C)C` [PTH(1–34), [Nle^8,21,Tyr^34]rPTH-(1–34)NH2], for which the “greater potency with rΔNt in comparison to the potency of PTH(1–14)” value in test [1] (COS-7 cells, cAMP) is given as 100 fold. Moreover, the “cAMP response of cells expressing rΔNt (in words)” value in test [1] is given as “responded”. The “decrease in potency with rΔNt as compared to potency with rWT-HA” value in test [2] is on record as 100 fold.

Consider “PTH(1–14): Amino-terminal peptide fragment based on the rat PTH sequence, residues 1–14, C-terminally amidated (AVSEIQLMHNLGKH-NH2)”, for which the “potency relative to PTH(1–34) with rΔNt” value in test [1] (COS-7 cells transfected with rΔNt) is listed as “only two orders of magnitude weaker”. The “cAMP response of cells expressing rΔNt (in words)” value in test [1] is given as “responded”. The “potency/activity with rΔNt compared with rWT-HA (in words)” value in test [2] is on record as “equipotent with the two receptors; also recorded: equivalent activity; also recorded: not affected”. Also, the “binding in standard competition binding assays” value in test [3] is recorded as “bound too weakly to permit detection”.
